Data: US20240083888A1, “SMALL MOLECULE INHIBITOR FOR CATHEPSIN C AND MEDICINAL USE THEREOF” (REISTONE BIOPHARMA COMPANY LIMITED, priority 2020, published 2024)
pIC50: −log10 of the molar value.

Legend:
[1] = Pharmacokinetic experiment in beagle dogs; assay type: in vivo; design: clearance: unit not given here; conditions: for Vd: read-out: Vdss
Experimental: Beagle dogs (male, 9 to 11 kg)
Pharmacokinetic characteristics of the compounds in beagle dogs after intravenous or oral administration were determined by standard protocols. In the experiment, the compound was formulated into a clear solution, and administered to beagle dogs by single intravenous injection or oral administration. The intravenous injection vehicle was a mixed vehicle of 5% dimethyl sulfoxide and 95% (28% aqueous hydroxypropyl beta cyclodextrin solution). The oral vehicle is a solution of 0.5% hydroxypropylmethylcellulose and 0.1% polysorbate 80 in water. Whole blood samples within 24 hours were collected, and the supernatants were separated to obtain plasma samples. The sample was centrifuged to obtain the supernatant, to which an equal volume of water was added. The resulting solution was centrifuged to obtain the supernatant, which was injected into the analysis machine. Quantitative analysis of plasma concentration was carried out by LC-MS/MS analysis method, and the pharmacokinetic parameters, such as peak concentration (Cmax), clearance (Cl), half-life (T1/2), volume of distribution (Vdss) and area under the drug-time curve (AUC), were calculated.

[2] = Pharmacokinetic experiment in BALB/c mice; assay type: in vivo; conditions: for AUC(0-t) / clearance / half-life / Vd / Tmax / bioavailability: male, mouse, plasma; for Vd: read-out: Vdss
Experimental: BALB/c mice (male, 20 to 30 g, fasting)
Pharmacokinetic characteristics of the compounds in rodent after intravenous or oral administration were determined by standard protocols. In the experiment, the compound was formulated into a clear solution, and administered to mice by single intravenous injection or oral administration. The intravenous injection vehicle was a mixed vehicle of 500 dimethyl sulfoxide and 9500 (3000 aqueous sulfobutylether cyclodextrin solution). The oral vehicle is a solution of 0.50% hydroxypropylmethylcellulose and 0.10% polysorbate 80 in water. Whole blood samples within 24 hours were collected, and the supernatants were separated to obtain plasma samples. Quantitative analysis of plasma concentration was carried out by LC-MS/MS analysis method, and the pharmacokinetic parameters, such as peak concentration (Cmax), clearance (Cl), half-life (T1/2), volume of distribution (Vdss) and area under the drug-time curve (AUC), were calculated.

[3] = tested on: neutrophil elastase (NE) downstream of CatC; experiment: Target binding model in C57BL/6 mice: NE protease activity in bone marrow; assay type: in vivo; conditions: 3 mg/kg PO, 8 days, bone marrow cell lysate, female C57BL/6 mice
Experimental: 1. Experimental protocol: In order to investigate the inhibitory effect of the compounds on the activity of neutrophil elastase (hereinafter referred to as NE) downstream of CatC in neutrophil, female C57BL/6 mice were administered according to the following table:
2. Experimental procedures: The compound or vehicle control was administered continuously for 8 days. On Day 1 to 7, the compound or vehicle control was administered twice a day with an administration interval of 6 hours. On Day 8, the test material was collected one hour after the first administration. […] The sample was washed once with Dulbecco's phosphate buffer, centrifuged at 400 g for 5 minutes and counted. […] The supernatant was stored at −80° C. until protease activity was determined. The protease activity in the cell lysates of each group was determined using the NE protease activity detection kit (Sigma-Aldrich MAK246). 7.5 μL of 3× diluted bone marrow cell lysate or 7.5 μL of double-diluted NE standard and 7.5 μL of 25× diluted substrate were added to a 384-well plate, and the NE protease activity was immediately monitored in real-time at Ex 380 nm and Em 500 nm for 30 minutes. The RFU within the linear reaction time was determined, and the NE protease activity (ng/ml) in the sample was calibrated by the standard curve.

[4] = target: CatC (Homo sapiens (Human), UniProt P53634); experiment: In vitro CatC cell activity experiment in U937 cell line; assay type: cell-based
Sequence of CatC (P53634 25-134): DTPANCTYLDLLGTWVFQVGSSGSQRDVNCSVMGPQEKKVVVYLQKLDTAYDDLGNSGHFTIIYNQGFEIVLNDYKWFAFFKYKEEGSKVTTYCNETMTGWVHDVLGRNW
Sequence of CatC (P53634 231-394): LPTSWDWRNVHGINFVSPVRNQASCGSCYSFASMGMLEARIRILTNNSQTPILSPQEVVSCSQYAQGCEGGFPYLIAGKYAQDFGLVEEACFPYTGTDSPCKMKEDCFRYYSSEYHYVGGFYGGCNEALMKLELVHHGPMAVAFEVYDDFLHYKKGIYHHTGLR
Sequence of CatC (P53634 395-463): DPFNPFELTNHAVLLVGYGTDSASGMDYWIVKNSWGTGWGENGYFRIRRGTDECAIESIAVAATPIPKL
Experimental: The U937 cell line was resuscitated and passed for about two generations, and the cell line with good growth status was selected. The cell suspension was transferred into a centrifuge tube, and centrifuged at 800 to 1000 rpm for 3 to 5 minutes. The supernatant was discarded. An appropriate volume of culture medium was added to the centrifuge tube, which was gently pipetted to resuspend the cells evenly. The cells were counted using a Vi-Cell XR cell counter. The cell suspension was adjusted to an appropriate concentration. The cell suspension was added into a 384-well plate ([…]). The compound was formulated into a 10 mM solution with DMSO. The compound was diluted with DMSO to obtain a 1 mM solution, and a semi-logarithmi dilution was carried out by HPD300 with DMSO to obtain 10 concentrations. Gly-Phe-AFC was formulated into a 35 mM solution with DMSO and divided. […] After adding the compounds and incubating for 1 hour in an incubator, substrate-AFC was added (12.5 μL was added to the plate). The plate was incubated for 30 minutes and read. […] XLFit was used to draw the drug efficacy inhibition rate curve and calculate the IC50 value. 4-parameter model [fit=(A+((B−A)/(1+((C/x)^D))))] was used.

[5] = target: rhCatC (Homo sapiens (Human), UniProt P53634); experiment: In vitro enzyme activity experiment of rhCatC (AMC fluorescence assay); assay type: biochemical; conditions: rhCatC enzyme, substrate H-Gly-Arg-AMC; read-out: Biological activity IC50
Sequence of rhCatC (P53634 25-134): as the sequence (P53634 25-134) above
Sequence of rhCatC (P53634 231-394): as the sequence (P53634 231-394) above
Sequence of rhCatC (P53634 395-463): as the sequence (P53634 395-463) above
Experimental: The in vitro inhibitory effect of compounds and positive control on rhCatC enzyme activity was evaluated by AMC fluorescence assay. rhCatC can catalyze the reaction of substrate peptide H-Gly-Arg-AMC, and release AMC to generate fluorescence. […] The compound was diluted with DMSO to a 384-well echo plate at a concentration of 100× of the highest concentration at the beginning of the experiment. 0.2 μL of the diluted compound was pipetted to a black-bottomed 384-well reaction plate for later use. The negative control well was DMSO. • 2) Activation of rhCatC: RhCatC and rhCatL were added to the activation buffer to obtain a final concentration of rhCatC of 100 μg/mL and a final concentration of rhCatL of 20 μg/mL, and incubated at room temperature for 1 hour. • 3) Enzyme activity reaction: Activated rhCatC was diluted to 0.4 μg/mL with the reaction buffer. The solution was added to the black-bottom 384-well reaction plate ([…]). 10 μL of the buffer was added for the vehicle control group. The plate containing compounds in its wells was incubated at room temperature for 30 minutes.
The RLU data was read, the inhibition rate was calculated, and the IC50 value was calculated according to the fitting curve of concentration and inhibition rate.

Cn1c(=O)oc2ccc(-c3ccc(C[C@@H](C#N)NC(=O)[C@@H]4CNCCCO4)cc3)cc21 [AZD7986, reference compound]
AUC(0-t) ([1]; male, dog, plasma, IV, 1 mg/kg): 1410 ng·h/mL | half-life ([1]; male, dog, plasma, IV, 1 mg/kg): 13.5 h | Vd ([1]; male, dog, plasma, IV, 1 mg/kg): 9.26 L/kg | AUC(0-t) ([1]; male, dog, plasma, PO, 2 mg/kg): 3670 ng·h/mL | Tmax ([1]; male, dog, plasma, PO, 2 mg/kg): 1.67 h | bioavailability ([1]; male, dog, plasma, PO, 2 mg/kg): 104% | half-life ([1]; male, dog, plasma, PO, 2 mg/kg): 15.3 h | AUC(0-t) ([2]; IV, 2 mg/kg): 2120 ng·h/mL | clearance ([2]; IV, 2 mg/kg): 15.1 mL/min/kg | half-life ([2]; IV, 2 mg/kg): 2.74 h | Vd ([2]; IV, 2 mg/kg): 2.34 L/kg | AUC(0-t) ([2]; PO, 5 mg/kg): 2130 ng·h/mL | Tmax ([2]; PO, 5 mg/kg): 1.5 h | bioavailability ([2]; PO, 5 mg/kg): 40.2% | half-life ([2]; PO, 5 mg/kg): 3.18 h

N#Cc1ccc2c(c1)COc1cc(C[C@@H](C#N)NC(=O)[C@@H]3CNCCCO3)c(F)cc1-2 [Compound 14, (S)—N—((S)-1-Cyano-2-(8-cyano-2-fluoro-6H-benzo[c]chromen-3-yl)ethyl)-1,4-oxazepane-2-carboxamide]
inhibitory rate of NE protease activity compared with AZD7986 [3]: higher inhibitory rate of NE protease activity than the reference compound AZD7986 | PK properties compared with AZD7986 [1]: better PK properties than AZD7986 | decrease of clearance rate compared with AZD7986 ([1]; IV): about 3 times | increase of intravenous exposure compared with AZD7986 ([1]; IV): 3.4 times | increase of oral exposure compared with AZD7986 ([1]; PO): 3.0 times | AUC(0-t) ([1]; male, dog, plasma, IV, 1 mg/kg): 4790 ng·h/mL | clearance ([1]; male, dog, plasma, IV, 1 mg/kg): 0.172 | half-life ([1]; male, dog, plasma, IV, 1 mg/kg): 10.2 h | Vd ([1]; male, dog, plasma, IV, 1 mg/kg): 2.29 L/kg | AUC(0-t) ([1]; male, dog, plasma, PO, 2 mg/kg): 10900 ng·h/mL | Tmax ([1]; male, dog, plasma, PO, 2 mg/kg): 3.33 h | bioavailability ([1]; male, dog, plasma, PO, 2 mg/kg): 100% | half-life ([1]; male, dog, plasma, PO, 2 mg/kg): 12.3 h | pIC50 [4]: 8.21 | pIC50 [5]: 8.27 | PK properties compared with AZD7986 [2]: better PK properties than AZD7986 | oral bioavailability compared with AZD7986 [2]: increased | decrease of clearance rate compared with AZD7986 ([2]; IV): about 1.8 times | increase of intravenous exposure compared with AZD7986 ([2]; IV): 1.8 times | increase of oral exposure compared with AZD7986 ([2]; PO): 3.1 times | AUC(0-t) ([2]; IV, 2 mg/kg): 3770 ng·h/mL | clearance ([2]; IV, 2 mg/kg): 8.49 mL/min/kg | half-life ([2]; IV, 2 mg/kg): 3.08 h | Vd ([2]; IV, 2 mg/kg): 1.75 L/kg | AUC(0-t) ([2]; PO, 5 mg/kg): 6610 ng·h/mL | Tmax ([2]; PO, 5 mg/kg): 0.5 h | bioavailability ([2]; PO, 5 mg/kg): 65.3% | half-life ([2]; PO, 5 mg/kg): 2.69 h

N#Cc1ccc2c(c1)-c1cc(F)c(C[C@@H](C#N)NC(=O)[C@@H]3CNCCCO3)cc1OC2 [Compound 32, (S)—N—((S)-1-Cyano-2-(9-cyano-2-fluoro-6H-benzo[c]chromen-3-yl)ethyl)-1,4-oxazepane-2-carboxamide]
inhibitory rate of NE protease activity compared with AZD7986 [3]: higher inhibitory rate of NE protease activity than the reference compound AZD7986 | pIC50 [4]: 8.15 | pIC50 [5]: 7.89
